Results reported in PubChem BioAssay (NCI).
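A five-concentration, 48-hour dose response in 96-well plates underlies each endpoint, interpolated linearly between surrounding concentrations. Here, GI50 denotes the concentration required for 50% inhibition of growth. The concentration for full growth arrest is given as TGI.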

Legend:
Assay in all cases: NCI anticancer screen, dose series, 48 h
[1] = system: SNB-75 CNS
[2] = system: UACC-62 melanoma
[3] = system: U251 CNS
[4] = system: RPMI-8226 leukemia
[5] = system: NCI-H23 lung
[6] = system: 786-0 renal
[7] = system: SF-539 CNS
[8] = system: OVCAR-5 ovarian
[9] = system: EKVX NSCLC
[10] = system: A498 renal

Row | Compound | TGI [1] | TGI [2] | TGI [3] | TGI [4] | TGI [5] | TGI [6] | TGI [7] | TGI [8] | TGI [9] | TGI [10] | GI50 [1] | GI50 [2] | GI50 [3] | GI50 [4] | GI50 [5] | GI50 [6] | GI50 [7] | GI50 [8] | GI50 [9] | GI50 [10]
1 | NC(=O)OCC(COc1ccc(Cl)cc1)OC(=O)c1cc([N+](=O)[O-])cc([N+](=O)[O-])c1 (centres undefined) | > 100 µM | > 100 µM | > 100 µM | > 100 µM | > 100 µM | > 100 µM | > 100 µM | > 100 µM | > 100 µM | > 100 µM | – | – | – | – | – | – | – | – | – | –
2 | O=C1C2C3CCC(C2C(=O)N1CO)C1C2C(=O)N(CO)C(=O)C2C31 (centres undefined) | > 100 µM | > 100 µM | > 56.2 µM | 47.7 µM | > 100 µM | > 61.3 µM | > 85.3 µM | > 100 µM | > 100 µM | > 100 µM | – | – | – | – | – | – | – | – | – | –
3 | C/C=C(\C)C(=O)OC1C2C(C)C(=O)OC2C(O)C(C)C2C=CC(=O)C21C (centres undefined) | 43.3 µM | 26.1 µM | 24.6 µM | 32.1 µM | 27.1 µM | 30.3 µM | 36.4 µM | 38.8 µM | 38 µM | 53.3 µM | – | – | – | – | – | – | – | – | – | –
4 | O=c1[nH]c(=O)n(C2OC(CO)C(O)C2O)cc1OCc1ccccc1 (centres undefined) | > 100 µM | > 100 µM | > 72.2 µM | > 73.3 µM | > 100 µM | > 100 µM | > 100 µM | > 100 µM | > 100 µM | > 100 µM | – | – | – | – | – | – | – | – | – | –
5 | Nc1ncnc2c1c(C(=O)NO)cn2C1OC(CO)C(O)C1O (centres undefined) | 8.04 µM | 1.19 µM | > 100 µM | – | 2.89 µM | 14.2 µM | 3.01 µM | – | 15.7 µM | 6.9 µM | 0.509 µM | 0.32 µM | 0.419 µM | 0.282 µM | 0.329 µM | 0.63 µM | 0.551 µM | 0.604 µM | 0.776 µM | 0.915 µM
6 | CCCC(=O)Nc1ncnc2c1ncn2C1OC2COP(=O)(O)OC2C1OC(=O)CCC (centres undefined) | > 1000 µM | > 1000 µM | > 1000 µM | > 1000 µM | > 1000 µM | > 1000 µM | > 1000 µM | > 1000 µM | > 1000 µM | 92.8 µM | > 1000 µM | > 1000 µM | > 1000 µM | – | > 1000 µM | > 1000 µM | – | > 1000 µM | > 1000 µM | –
7 | CCCCCCCCCCCCCC(=O)OC1C(CO)OC(=O)C1O (centres undefined) | > 100 µM | > 100 µM | > 100 µM | > 100 µM | > 100 µM | > 100 µM | > 100 µM | > 100 µM | > 100 µM | > 100 µM | – | – | – | – | – | – | – | – | – | –
8 | Cc1cc(O)c(O)c(Oc2cc(C)cc(O)c2O)c1 | > 100 µM | 56.8 µM | > 100 µM | > 100 µM | > 100 µM | 55.5 µM | > 100 µM | > 100 µM | 36.8 µM | > 100 µM | – | – | – | – | – | – | – | – | – | –
9 | CCCCCCCCCCNC(=S)OCCCC | 86.7 µM | 53.1 µM | 37.5 µM | 34.9 µM | 53.9 µM | 76.3 µM | 48.3 µM | 29 µM | 65.8 µM | 62.6 µM | – | – | – | – | – | – | – | – | – | –
10 | CNc1ccc(C(=O)CC(O)CCC(C)C2OC(=O)CC(O)CC(=O)CC(O)CC(O)CC(O)CC(O)CC3(O)CC(O)C(C(=O)NCCc4ccccn4)C(CC(OC4OC(C)C(O)C(N)C4O)/C=C/C=C/C=C/C=C\C=C/C=C/C=C/C2C)O3)cc1 (centres undefined) | > 50 µM | > 34.2 µM | > 40.3 µM | > 50 µM | 0.271 µM | 0.361 µM | > 50 µM | 2.02 µM | 0.49 µM | 0.464 µM | > 50 µM | 1.54 µM | 2.11 µM | 0.823 µM | 0.118 µM | 0.118 µM | 2.73 µM | 0.323 µM | 0.134 µM | 0.136 µM
11 | N#CC(C#N)=Cc1ccc(Oc2ccccc2)cc1 | > 91.7 µM | 35 µM | > 57 µM | 57.3 µM | 52.2 µM | 33 µM | 40.4 µM | > 100 µM | > 100 µM | > 100 µM | – | – | – | – | – | – | – | – | – | –
12 | C(=C\c1nc2ccccc2s1)/c1ccc(N2CCOCC2)s1 | > 100 µM | > 100 µM | > 100 µM | > 100 µM | > 100 µM | > 100 µM | > 100 µM | > 100 µM | > 100 µM | > 100 µM | 31.6 µM | 7.94 µM | 44.8 µM | 25.6 µM | 80.9 µM | 33.7 µM | 53.1 µM | 66.9 µM | 30.1 µM | > 100 µM
13 | COc1ccc(CCN2COc3ccc4ccc(=O)oc4c3C2)cc1OC | > 100 µM | > 100 µM | > 100 µM | 52.8 µM | > 100 µM | > 100 µM | > 100 µM | > 100 µM | > 100 µM | > 100 µM | – | – | – | – | – | – | – | – | – | –
14 | COc1ccc(OC)c(-c2cc(C(=O)O)c3cc4ccccc4cc3n2)c1 | > 100 µM | > 100 µM | > 100 µM | > 100 µM | > 100 µM | > 100 µM | > 100 µM | > 100 µM | > 100 µM | > 100 µM | – | – | – | – | – | – | – | – | – | –
15 | CCC[CH2][Ge]([CH2]CCC)([CH2]CCC)[O]C(=O)C(OC(C)=O)c1ccccc1 (centres undefined) | 25.2 µM | 15.6 µM | 20.2 µM | 4.82 µM | 6.24 µM | 22.8 µM | 22.3 µM | 17.5 µM | 9.37 µM | 24.3 µM | 0.973 µM | 1.64 µM | 1.19 µM | 0.297 µM | 0.0395 µM | 6.34 µM | 7.63 µM | 3.36 µM | – | 11.4 µM
16 | CS(=O)(=O)c1ccc(-c2[nH]c3ccc(F)cc3c2/C=N/NC(N)=S)cc1 | > 100 µM | > 100 µM | > 100 µM | 6.64 µM | > 100 µM | > 100 µM | > 100 µM | > 100 µM | > 100 µM | 5.18 µM | 1.85 µM | 0.531 µM | 0.777 µM | 0.475 µM | 4.66 µM | 0.605 µM | 1.3 µM | 3.74 µM | 3.94 µM | 0.347 µM
17 | N#Cc1nc(Nc2ccc(Cl)cc2)sc1N | > 71.1 µM | 42.8 µM | 34.1 µM | > 65.6 µM | 13.2 µM | 33.7 µM | 9.46 µM | > 46.4 µM | 83.2 µM | 56 µM | – | – | – | – | – | – | – | – | – | –
